Assay results taken from patent US11427567B2, “Imidazolyl pyrimidinylamine compounds as CDK2 inhibitors” (Incyte Corporation, priority 2019, dated 2022).

Target: CDK2/Cyclin E1 (Homo sapiens (Human), UniProt P24941)
Assay: CDK2/Cyclin E1 HTRF enzyme activity assay (Example A)
Format: biochemical
Conditions: 1 mM ATP
Experimental: Assays were conducted in white 384-well polystyrene plates in a final reaction volume of 8 μL. […] HTRF signals were read after 1 hour at room temperature on a PHERAstar FS plate reader (BMG Labtech). Data was analyzed with IDBS XLFit and GraphPad Prism 5.0 software using a three or four parameter dose response curve to determine IC50 for each compound.

SMILES | IC50
CC(C)(O)Cn1cnc(-c2nc(NC3CCN(S(=O)(=O)C4CC4)CC3)ncc2C(F)(F)F)c1 [Example 30, 1-(4-(2-((1-(Cyclopropylsulfonyl)piperidin-4-yl)amino)-5-(trifluoromethyl)pyrimidin-4-yl)-1H-imidazol-1-yl)-2-methylpropan-2-ol] | ≤ 50 nM
Cc1c(-c2nc(NC3CCN(S(C)(=O)=O)CC3)ncc2C(F)(F)F)ncn1C [Example 15, 4-(1,5-Dimethyl-1H-imidazol-4-yl)-N-(1-(methylsulfonyl)piperidin-4-yl)-5-(trifluoromethyl)pyrimidin-2-amine] | 50 to 200 nM
CS(=O)(=O)N1CCC(Nc2ncc(C(F)(F)F)c(-c3cn(C(CC#N)C4CC4)cn3)n2)CC1 (stereo not drawn) [Example 25, 3-Cyclopropyl-3-(4-(2-((1-(methylsulfonyl)piperidin-4-yl)amino)-5-(trifluoromethyl)pyrimidin-4-yl)-1H-imidazol-1-yl)propanenitrile] | ≤ 50 nM
CCNCc1ccc(-n2cnc(-c3nc(N[C@H]4CCN(S(C)(=O)=O)C[C@H]4C)ncc3C(F)(F)F)c2)c(Cl)c1 [Example 218, 4-(1-(2-Chloro-4-((ethylamino)methyl)-phenyl)-1H-imidazol-4-yl)-N-((3R,4S)-3-methyl-1-(methyl-sulfonyl)piperidin-4-yl)-5-(trifluoro-methyl)-pyrimidin-2-amine] | ≤ 50 nM
CS(=O)(=O)N1CCC(Nc2ncc(C(F)(F)F)c(-c3cn(-c4ccc(CN5CC6CC5CO6)cc4Cl)cn3)n2)CC1 (stereo not drawn) [Example 213] | ≤ 50 nM
Cc1ccc(-n2cnc(-c3nc(N[C@H]4CCN(S(C)(=O)=O)C[C@H]4F)ncc3C(F)(F)F)c2)c(C#N)n1 [Example 51, 3-(4-(2-(((3R,4S)-3-Fluoro-1-(methylsulfonyl)piperidin-4-yl)amino)-5-(trifluoromethyl)pyrimidin-4-yl)-1H-imidazol-1-yl)-6-methylpicolinonitrile] | ≤ 50 nM
Cc1nc(-c2nc(NC3CCN(S(C)(=O)=O)CC3)ncc2C(F)(F)F)cn1-c1ccc(OC[C@@H]2CCCN2C)cc1F [Example 425, (S)-4-(1-(2-Fluoro-4-((1-methylpyrrolidin-2-yl)methoxy)phenyl)-2-methyl-1H-imidazol-4-yl)-N-(1-(methylsulfonyl)piperidin-4-yl)-5-(trifluoromethyl)pyrimidin-2-amine] | ≤ 50 nM
CS(=O)(=O)N1CC[C@H](Nc2ncc(C(F)(F)F)c(-c3cn(-c4ccc(CN5CCC5)cc4Cl)cn3)n2)[C@H](F)C1 [Example 184, 4-(1-(4-(Azetidin-1-ylmethyl)-2-chlorophenyl)-1H-imidazol-4-yl)-N-((3R,4S)-3-fluoro-1-(methylsulfonyl)piperidin-4-yl)-5-(trifluoromethyl)pyrimidin-2-amine] | ≤ 50 nM
CN1CCN(CCc2cccc(-n3cnc(-c4nc(NC5CCN(S(C)(=O)=O)CC5)ncc4C(F)(F)F)c3)c2Cl)CC1 [Example 464, 4-(1-(2-Chloro-3-(2-(4-methylpiperazin-1-yl)ethyl)phenyl)-1H-imidazol-4-yl)-N-(1-(methylsulfonyl)piperidin-4-yl)-5-(trifluoromethyl)pyrimidin-2-amine] | ≤ 50 nM
CN1CCN(Cc2cc(F)c(-n3cnc(-c4nc(N[C@H]5CCN(S(C)(=O)=O)C[C@H]5F)ncc4C(F)(F)F)c3)c(F)c2)CC1 [Example 443, 4-(1-(2,6-Difluoro-4((4-methylpiperazin-1-yl)methyl)phenyl)-1H-imidazol-4-yl)-N-((3R,4S)-3-fluoro-1-(methylsulfonyl)piperidin-4-yl)-5-(trifluoromethyl)pyrimidin-2-amine] | ≤ 50 nM
Cc1nc(-c2nc(N[C@H]3CCN(S(C)(=O)=O)C[C@H]3F)ncc2C(F)(F)F)cn1-c1ccc(CN2CCCC2)cc1F [Example 407, N-((3R,4S)-3-Fluoro-1-(methylsulfonyl)piperidin-4-yl)-4-(1-(2-fluoro-4-(pyrrolidin-1-ylmethyl)phenyl)-2-methyl-1H-imidazol-4-yl)-5-(trifluoromethyl)pyrimidin-2-amine] | ≤ 50 nM
Cc1nc(-c2nc(N[C@H]3CCN(S(C)(=O)=O)C[C@H]3F)ncc2C(F)(F)F)cn1-c1ccc(C#N)cc1F [Example 299, 3-Fluoro-4-(4-(2-(((3R,4S)-3-fluoro-1-(methylsulfonyl)piperidin-4-yl)amino)-5-(trifluoromethyl)pyrimidin-4-yl)-2-methyl-1H-imidazol-1-yl)benzonitrile] | ≤ 50 nM

Results, then the compound that gave them:

IC50 | SMILES
≤ 50 nM | CS(=O)(=O)N1CCC(Nc2ncc(C(F)(F)F)c(-c3cn(-c4ccc(CN5CCCC5)cc4C#N)cn3)n2)CC1 [Example 346, 2-(4-(2-((1-(Methylsulfonyl)piperidin-4-yl)amino)-5-(trifluoromethyl)pyrimidin-4-yl)-1H-imidazol-1-yl)-5-(pyrrolidin-1-ylmethyl)benzonitrile]
≤ 50 nM | CS(=O)(=O)N1CCC(Nc2ncc(C(F)(F)F)c(-c3cn(-c4cccc(C(O)C5CC5)c4Cl)cn3)n2)CC1 (stereo not drawn) [Example 86, (2-chloro-3-(4-(2-((1-(methylsulfonyl)piperidin-4-yl)amino)-5-(trifluoromethyl)pyrimidin-4-yl)-1H-imidazol-1-yl)phenyl)(cyclopropyl)methanol]
≤ 50 nM | CS(=O)(=O)N1CCC(Nc2ncc(C(F)(F)F)c(-c3cn(-c4ccc(CN5CC[C@H](O)C5)cc4C(F)(F)F)cn3)n2)CC1 [Example 260, (S)-1-(4-(4-(2-((1-(Methylsulfonyl)piperidin-4-yl)amino)-5-(trifluoromethyl)pyrimidin-4-yl)-1H-imidazol-1-yl)-(trifluoromethyl)benzyl) pyrrolidin-3-ol]
≤ 50 nM | CN(C)CCc1ccc(-n2cnc(-c3nc(NC4CCN(S(C)(=O)=O)CC4)ncc3C(F)(F)F)c2)c(C#N)c1 [Example 433, 5-(2-(Dimethylamino)ethyl)-2-(4-(2-((1-(methylsulfonyl)piperidin-4-yl)amino)-5-(trifluoromethyl)pyrimidin-4-yl)-1H-imidazol-1-yl)benzonitrile]
≤ 50 nM | CS(=O)(=O)N1CC[C@H](Nc2ncc(C(F)(F)F)c(-c3cn(-c4cccnc4C(F)(F)F)cn3)n2)[C@H](F)C1 [Example 48, N-((3R,4S)-3-Fluoro-1-(methylsulfonyl)piperidin-4-yl)-5-(trifluoromethyl)-4-(1-(2-(trifluoromethyl)pyridin-3-yl)-1H-imidazol-4-yl)pyrimidin-2-amine]
≤ 50 nM | CS(=O)(=O)N1CCC(Nc2ncc(C(F)(F)F)c(-c3cn(-c4cccc5c4COC5=O)cn3)n2)CC1 [Example 233, 4-(4-(2-((1-(Methylsulfonyl)piperidin-4-yl)amino)-5-(trifluoromethyl)pyrimidin-4-yl)-1H-imidazol-1-yl)isobenzofuran-1(3H)-one]
≤ 50 nM | CCc1ccc(-n2cnc(-c3nc(NC4CCN(S(C)(=O)=O)CC4)ncc3C(F)(F)F)c2)c(C#N)n1 [Example 41, 6-Ethyl-3-(4-(2-((1-(methylsulfonyl)piperidin-4-yl)amino)-5-(trifluoromethyl)pyrimidin-4-yl)-1H-imidazol-1-yl)picolinonitrile]
≤ 50 nM | C[C@@]1(O)CCN(CCc2cccc(-n3cnc(-c4nc(NC5CCN(S(C)(=O)=O)CC5)ncc4C(F)(F)F)c3)c2Cl)C1 [Example 374, (R)-1-(2-Chloro-3-(4-(2-((1-(methylsulfonyl)piperidin-4-yl)amino)-5-(trifluoromethyl)pyrimi-din-4-yl)-1H-imidazol-1-yl)phenethyl)-3-methylpyrrolidin-3-ol]
≤ 50 nM | CC(C)(O)CCOc1ccc(-n2cnc(-c3nc(NC4CCN(S(C)(=O)=O)CC4)ncc3C(F)(F)F)c2)c(C(F)(F)F)n1 [Example 71, 2-Methyl-4-((5-(4-(2-((1-(methylsulfonyl)piperidin-4-yl)amino)-5-(trifluoromethyl)pyrimidin-4-yl)-1H-imidazol-1-yl)-6-(trifluoromethyl)pyridin-2-yl)oxy)butan-2-ol]
≤ 50 nM | CS(=O)(=O)N1CCC(Nc2ncc(C(F)(F)F)c(-c3cn(-c4ccc(CN5CC(C#N)C5)cc4Cl)cn3)n2)CC1 [Example 198, 1-(3-Chloro-4-(4-(2-((1-(methylsulfonyl)-piperidin-4-yl)amino)-5-(trifluoromethyl)-pyrimidin-4-yl)-1H-imidazol-1-yl)benzyl)-azetidine-3-carbonitrile]
≤ 50 nM | CC1(O)CN(Cc2ccc(-n3cnc(-c4nc(NC5CCN(S(C)(=O)=O)CC5)ncc4C(F)(F)F)c3)c(Cl)c2)C1 [Example 194, 1-(3-Chloro-4-(4-(2-((1-(methylsulfonyl)-piperidin-4-yl)amino)-5-(trifluoromethyl)-pyrimidin-4-yl)-1H-imidazol-1-yl)benzyl)-3-methylazetidin-3-ol]
≤ 50 nM | CNC(=O)c1ccc(-n2cnc(-c3nc(NC4CCN(S(C)(=O)=O)CC4)ncc3C(F)(F)F)c2)c(C)n1 [Example 132, N,6-Dimethyl-5-(4-(2-((1-(methyl-sulfonyl)piperidin-4-yl)amino)-5-(trifluoromethyl)-pyrimidin-4-yl)-1H-imidazol-1-yl)picolinamide]
≤ 50 nM | CS(=O)(=O)N1CCC(Nc2ncc(C(F)(F)F)c(-c3cn(-c4ccc(CNC5CC5)cc4C(F)(F)F)cn3)n2)CC1 [Example 256]
≤ 50 nM | CC(O)c1ccc(-n2cnc(-c3nc(NC4CCN(S(C)(=O)=O)CC4)ncc3C(F)(F)F)c2)c(Cl)c1 (stereo not drawn) [Example 248, 1-(3-Chloro-4-(4-(2-((1-(methylsulfonyl)piperidin-4-yl)amino)-5-(trifluoromethyl)pyrimidin-4-yl)-1H-imidazol-1-yl)phenyl)ethan-1-ol]
≤ 50 nM | COC1CN(Cc2ccc(-n3cnc(-c4nc(NC5CCN(S(C)(=O)=O)CC5)ncc4C(F)(F)F)c3)c(Cl)c2)C1 [Example 195, 4-(1-(2-Chloro-4-((3-methoxyazetidin-1-yl)methyl)phenyl)-1H-imidazol-4-yl)-N-(1-(methylsulfonyl)-piperidin-4-yl)-5-(trifluoromethyl)-pyrimidin-2-amine]
